These results are taken from patent US20260022142A1, “MACROCYCLIC IMMUNOMODULATORS” (Bristol-Myers Squibb Company, priority 2022, published 2026).

The structures appear in SMILES notation. Bridge positions count the residues as written; N and C are the ends. Square brackets hold non-standard residues; d marks the D form. Peptide text beside a SMILES is read from it. * marks the point of attachment. ξ: configuration not given here. Phe(3-CF3) = N[C@@H](Cc1cccc(C(F)(F)F)c1)C(=O)O; Ala(morpholin-4-yl) = N[C@@H](CN1CCOCC1)C(=O)O; Phe(4-COOH) = N[C@@H](Cc1ccc(C(=O)O)cc1)C(=O)O; Bip = N[C@@H](Cc1ccc(-c2ccccc2)cc1)C(=O)O; NH(CH2)14COOH = O=C(O)CCCCCCCCCCCCCCN*; Phe(3-Me) = Cc1cccc(C[C@H](N)C(=O)O)c1; NH(CH2)12COOH = O=C(O)CCCCCCCCCCCCN*; Val(3-OH) = CC(C)(O)[C@H](N)C(=O)O; hArg = N=C(N)NCCCC[C@H](N)C(=O)O; Cha = N[C@@H](CC1CCCCC1)C(=O)O; Cit = NC(=O)NCCC[C@H](N)C(=O)O; Thr(3ξ) = CC(O)[C@H](N)C(=O)O; PEG4 = NCCOCCOCCOCCOCCC(=O)O; Carboxymethyl = O=C(O)C*; Orn = NCCC[C@H](N)C(=O)O; Aun = NCCCCCCCCCCC(=O)O; Dab = NCC[C@H](N)C(=O)O; Nva = CCC[C@H](N)C(=O)O; Dap = NC[C@H](N)C(=O)O; AEEA = NCCOCCOCC(=O)O

T1 sequence (Q15116 25-288): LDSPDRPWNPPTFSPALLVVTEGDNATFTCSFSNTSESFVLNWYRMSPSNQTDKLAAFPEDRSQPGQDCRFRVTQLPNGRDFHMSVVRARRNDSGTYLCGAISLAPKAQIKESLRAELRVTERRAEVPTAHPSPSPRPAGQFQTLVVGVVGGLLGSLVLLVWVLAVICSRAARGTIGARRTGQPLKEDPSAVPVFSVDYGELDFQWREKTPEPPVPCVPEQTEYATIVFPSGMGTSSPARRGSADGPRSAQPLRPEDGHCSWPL

The test addresses T1, PD-1/PD-L1 interaction (PE-labeled human PD-L1-Ig binding to Jurkat cell line over-expressing human PD-1) (Homo sapiens, UniProt Q15116).
T1 construct: expressed in transfected cells; host or cells: Jurkat
Nature of the test: Jurkat-PD-1 Cell Binding High-Content Screening Assay (CBA). The format is cell-based. As to conditions: Jurkat cell line over-expressing human PD-1; PE-labeled PD-L1-Ig 20 nM final; read-out: Jurkat hPD1-PDL1 IC50. The procedure, abridged: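 Jurkat-hPD-1 cells, DMEM/10% FCS; cpd 2 h 37° C; PE-PD-L1-Ig 20 nM final, 1 h; 4% PFA fix + Hoechst 33342, 3× dPBS wash; high-content imaging read-out.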
For orientation: IC50 means the concentration needed to halve the response being measured. For the compound `CC(C)C[C@H]1NC(=O)[C@H](CCCN)NC(=O)[C@H](Cc2ccc(C(=O)O)cc2)NC(=O)[C@H](Cc2ccc(-c3ccccc3)cc2)NC(=O)[C@H](Cc2ccc(C(=O)O)cc2)NC(=O)[C@H](Cc2cccc(C(F)(F)F)c2)NC(=O)[C@H](CC(=O)O)NC(=O)[C@H](Cc2ccc(OCC(=O)O)cc2)NC(=O)[C@H](CN2CCOCC2)NC(=O)CSC[C@@H](C(=O)N[C@@H](CCN)C(=O)NCCOCCOCCOCCOCCC(=O)NCCCCCCCCCCCCC(=O)O)NC(=O)[C@H](CC(=O)O)NC(=O)[C@H](C(C)(C)O)NC(=O)[C@H](CC2CCCCC2)NC(=O)[C@H](CCN)NC1=O` [Compound 2947] ({CH2CO}-[Ala(morpholin-4-yl)]Y(Carboxymethyl)D[Phe(3-CF3)][Phe(4-COOH)][Bip][Phe(4-COOH)][Orn][dL][Dab][Cha][Val(3-OH)]DC[Dab][PEG4]-{NH(CH2)12COOH}; thioether N-14), the IC50 came to 64.4 nM.

For `CC(C)C[C@H]1NC(=O)[C@H](CCCN)NC(=O)[C@H](Cc2ccc(C(=O)O)cc2)NC(=O)[C@H](Cc2ccc(-c3ccccc3)cc2)NC(=O)[C@H](Cc2ccc(C(=O)O)cc2)NC(=O)[C@H](Cc2cccc(C(F)(F)F)c2)NC(=O)[C@H](CC(=O)O)NC(=O)[C@H](Cc2ccc(OCC(=O)O)cc2)NC(=O)[C@H](CN2CCOCC2)NC(=O)CSC[C@@H](C(=O)N[C@@H](CCN)C(=O)NCCOCCOCCOCCOCCC(=O)NCCCCCCCCCCCCCCC(=O)O)NC(=O)[C@H](CC(=O)O)NC(=O)[C@H](C(C)(C)O)NC(=O)[C@H](CC2CCCCC2)NC(=O)[C@H](CCN)NC1=O` [Compound 2948] ({CH2CO}-[Ala(morpholin-4-yl)]Y(Carboxymethyl)D[Phe(3-CF3)][Phe(4-COOH)][Bip][Phe(4-COOH)][Orn][dL][Dab][Cha][Val(3-OH)]DC[Dab][PEG4]-{NH(CH2)14COOH}; thioether N-14), the IC50 was 352 nM.

Regarding `CC(C)C[C@H]1NC(=O)[C@H](CCCN)NC(=O)[C@H](Cc2ccc(C(=O)O)cc2)NC(=O)[C@H](Cc2ccc(-c3ccccc3)cc2)NC(=O)[C@H](Cc2ccc(C(=O)O)cc2)NC(=O)[C@H](Cc2cccc(C(F)(F)F)c2)NC(=O)[C@H](CC(=O)O)NC(=O)[C@H](Cc2ccc(OCC(=O)O)cc2)NC(=O)[C@H](CN2CCOCC2)NC(=O)CSC[C@@H](C(=O)N[C@@H](CCN)C(=O)NCCCCCCCCCCCCCCC(=O)O)NC(=O)[C@H](CC(=O)O)NC(=O)[C@H](C(C)(C)O)NC(=O)[C@H](CC2CCCCC2)NC(=O)[C@H](CCN)NC1=O` [Compound 2949] ({CH2CO}-[Ala(morpholin-4-yl)]Y(Carboxymethyl)D[Phe(3-CF3)][Phe(4-COOH)][Bip][Phe(4-COOH)][Orn][dL][Dab][Cha][Val(3-OH)]DC[Dab]-{NH(CH2)14COOH}; thioether N-14), the IC50 is 305 nM.

Turning to `CCC[C@@H]1NC(=O)CSC[C@@H](C(=O)N[C@@H](CCN)C(=O)NCCOCCOCCOCCOCCC(=O)NCCCCCCCCCCCCC(=O)O)NC(=O)[C@H](Cc2c[nH]cn2)NC(=O)[C@H](C(C)(C)O)NC(=O)[C@H](CC2CCCCC2)NC(=O)[C@H](CCN)NC(=O)[C@@H](CC(C)C)NC(=O)[C@H](CCCN)NC(=O)[C@H](Cc2ccc(C(=O)O)cc2)NC(=O)[C@H](Cc2ccc(-c3ccccc3)cc2)NC(=O)[C@H](Cc2ccc(C(=O)O)cc2)NC(=O)[C@H](Cc2cccc(C(F)(F)F)c2)NC(=O)[C@H](CC(=O)O)NC(=O)[C@H](Cc2ccc(OCC(=O)O)cc2)NC1=O` [Compound 2950] ({CH2CO}-[Nva]Y(Carboxymethyl)D[Phe(3-CF3)][Phe(4-COOH)][Bip][Phe(4-COOH)][Orn][dL][Dab][Cha][Val(3-OH)]HC[Dab][PEG4]-{NH(CH2)12COOH}; thioether N-14), the IC50 was found to be 52.4 nM.

Take `CC(C)C[C@H]1NC(=O)[C@H](CCCN)NC(=O)[C@H](Cc2ccc(C(=O)O)cc2)NC(=O)[C@H](Cc2ccc(-c3ccccc3)cc2)NC(=O)[C@H](Cc2ccc(C(=O)O)cc2)NC(=O)[C@H](Cc2cccc(C(F)(F)F)c2)NC(=O)[C@H](CC(=O)O)NC(=O)[C@H](Cc2ccc(OCC(=O)O)cc2)NC(=O)[C@H](C)NC(=O)CSC[C@@H](C(=O)N[C@@H](CCN)C(=O)NCCOCCOCCOCCOCCC(=O)NCCCCCCCCCCCCC(=O)O)NC(=O)[C@H](Cc2c[nH]cn2)NC(=O)[C@H](C(C)(C)O)NC(=O)[C@H](CC2CCCCC2)NC(=O)[C@H](CCN)NC1=O` [Compound 2953] ({CH2CO}-AY(Carboxymethyl)D[Phe(3-CF3)][Phe(4-COOH)][Bip][Phe(4-COOH)][Orn][dL][Dab][Cha][Val(3-OH)]HC[Dab][PEG4]-{NH(CH2)12COOH}; thioether N-14): the IC50 worked out at 49.3 nM.

Regarding `CC(C)C[C@H]1NC(=O)[C@H](CCCN)NC(=O)[C@H](Cc2ccc(C(=O)O)cc2)NC(=O)[C@H](Cc2ccc(-c3ccccc3)cc2)NC(=O)[C@H](Cc2ccc(C(=O)O)cc2)NC(=O)[C@H](Cc2cccc(C(F)(F)F)c2)NC(=O)[C@H](CC(=O)O)NC(=O)[C@H](Cc2ccc(OCC(=O)O)cc2)NC(=O)[C@H](C)NC(=O)CSC[C@@H](C(=O)N[C@@H](CCN)C(=O)NCCOCCOCCOCCOCCC(=O)NCCCCCCCCCCCCCCC(=O)O)NC(=O)[C@H](Cc2c[nH]cn2)NC(=O)[C@H](C(C)(C)O)NC(=O)[C@H](CC2CCCCC2)NC(=O)[C@H](CCN)NC1=O` [Compound 2954] ({CH2CO}-AY(Carboxymethyl)D[Phe(3-CF3)][Phe(4-COOH)][Bip][Phe(4-COOH)][Orn][dL][Dab][Cha][Val(3-OH)]HC[Dab][PEG4]-{NH(CH2)14COOH}; thioether N-14), the IC50 was determined as 264 nM.

`CC(C)C[C@@H]1NC(=O)[C@H](Cc2c[nH]c3ccccc23)NC(=O)[C@H](CC(=O)O)NC(=O)[C@H](Cc2ccc(OCC(=O)O)cc2)NC(=O)[C@H](CCCCNC(=N)N)NC(=O)CSC[C@@H](C(=O)N[C@@H](C)C(=O)NCCOCCOCC(=O)N[C@@H](CCCCN)C(=O)NCCOCCOCC(=O)NCCCCCCCCCCCCCCC(=O)O)NC(=O)[C@H](CO)NC(=O)[C@H](C(C)C)NC(=O)[C@H](CC2CCCCC2)NC(=O)[C@H](CCN)NC(=O)[C@@H](CC(C)C)NC(=O)[C@H](CCCN)NC(=O)[C@H](C(C)C)NC(=O)[C@H](Cc2ccc(-c3ccccc3)cc2)NC1=O` [Compound 3006] ({CH2CO}-[hArg]Y(Carboxymethyl)DWL[Bip]V[Orn][dL][Dab][Cha]VSCA[AEEA]K[AEEA]-{NH(CH2)14COOH}; thioether N-14): the IC50 was determined as 129 nM.

As to `Cc1cccc(C[C@@H]2NC(=O)[C@H](CC(=O)O)NC(=O)[C@H](Cc3ccc(OCC(=O)O)cc3)NC(=O)[C@H](CN)NC(=O)CSC[C@@H](C(=O)N[C@@H](C)C(=O)N[C@@H](CCCCN)C(=O)NCC(=O)NCCCCCCCCCCCCCCC(=O)O)NC(=O)[C@H](C(C)O)NC(=O)[C@H](C(C)C)NC(=O)[C@H](CC3CCCCC3)NC(=O)[C@H](CCN)NC(=O)[C@@H](CC(C)C)NC(=O)[C@H](CCCN)NC(=O)[C@H](CCCNC(N)=O)NC(=O)[C@H](Cc3ccc(-c4ccccc4)cc3)NC(=O)[C@H](C(C)C)NC2=O)c1` (stereo partly drawn) [Compound 3007] ({CH2CO}-[Dap]Y(Carboxymethyl)D[Phe(3-Me)]V[Bip][Cit][Orn][dL][Dab][Cha]V[Thr(3ξ)]CAKG-{NH(CH2)14COOH}; thioether N-14), the IC50 was 180 nM.

As to `CC(C)C[C@H]1NC(=O)[C@H](CCCN)NC(=O)[C@H](CCN)NC(=O)[C@H](Cc2ccc(-c3ccccc3)cc2)NC(=O)[C@H](C(C)C)NC(=O)[C@H](Cc2c[nH]c3ccccc23)NC(=O)[C@H](CC(=O)O)NC(=O)[C@H](Cc2ccc(OCC(=O)O)cc2)NC(=O)[C@H](CN)NC(=O)CSC[C@@H](C(=O)N[C@@H](CC(N)=O)C(=O)NCC(=O)NCCCCCCCCCCCCCCC(=O)O)NC(=O)[C@H](CO)NC(=O)[C@H](C(C)C)NC(=O)[C@H](CC2CCCCC2)NC(=O)[C@H](CCN)NC1=O` [Compound 3008] ({CH2CO}-[Dap]Y(Carboxymethyl)DWV[Bip][Dab][Orn][dL][Dab][Cha]VSCNG-{NH(CH2)14COOH}; thioether N-14), the IC50 turned out to be 552 nM.

Turning to `CC(C)C[C@H]1NC(=O)[C@H](CCCN)NC(=O)[C@H](C(C)C)NC(=O)[C@H](Cc2ccc(-c3ccccc3)cc2)NC(=O)[C@H](C(C)C)NC(=O)[C@H](Cc2c[nH]c3ccccc23)NC(=O)[C@H](CC(=O)O)NC(=O)[C@H](Cc2ccc(C(=O)O)cc2)NC(=O)[C@H](CCCCNC(=N)N)NC(=O)CSC[C@@H](C(=O)N[C@@H](C)C(=O)N[C@@H](CCCCN)C(=O)NCCCCCCCCCCCCCCC(=O)O)NC(=O)[C@H](C(C)O)NC(=O)[C@H](C(C)C)NC(=O)[C@H](CC2CCCCC2)NC(=O)[C@H](CCN)NC1=O` (stereo partly drawn) [Compound 3016] ({CH2CO}-[hArg][Phe(4-COOH)]DWV[Bip]V[Orn][dL][Dab][Cha]V[Thr(3ξ)]CAK-{NH(CH2)14COOH}; thioether N-14), the IC50 worked out at 94.5 nM.

For `CC(C)C[C@@H]1NC(=O)[C@H](Cc2c[nH]c3ccccc23)NC(=O)[C@H](CC(=O)O)NC(=O)[C@H](Cc2ccc(C(=O)O)cc2)NC(=O)[C@H](CCCCNC(=N)N)NC(=O)CSC[C@@H](C(=O)N[C@@H](C)C(=O)N[C@@H](CCN)C(=O)NCCCCCCCCCCCCCCC(=O)O)NC(=O)[C@H](CO)NC(=O)[C@H](C(C)C)NC(=O)[C@H](CC2CCCCC2)NC(=O)[C@H](Cc2c[nH]cn2)NC(=O)[C@@H](CC(C)C)NC(=O)[C@H](CCCN)NC(=O)[C@H](C(C)C)NC(=O)[C@H](Cc2ccc(-c3ccccc3)cc2)NC1=O` [Compound 3019] ({CH2CO}-[hArg][Phe(4-COOH)]DWL[Bip]V[Orn][dL]H[Cha]VSCA[Dab]-{NH(CH2)14COOH}; thioether N-14), the IC50 is 336 nM.

As for `Cc1cccc(C[C@@H]2NC(=O)[C@H](CC(=O)O)NC(=O)[C@H](Cc3ccc(OCC(=O)O)cc3)NC(=O)[C@H](C(C)O)NC(=O)CSC[C@@H](C(=O)N[C@@H](C)C(=O)N[C@@H](CCN)C(=O)NCCCCCCCCCCC(=O)O)NC(=O)[C@H](C(C)O)NC(=O)[C@H](C(C)C)NC(=O)[C@H](CC3CCCCC3)NC(=O)[C@H](CCN)NC(=O)[C@@H](CC(C)C)NC(=O)[C@H](CCCN)NC(=O)[C@H](C(C)C)NC(=O)[C@H](Cc3ccc(-c4ccccc4)cc3)NC(=O)[C@H](C(C)C)NC2=O)c1` (stereo partly drawn) [Compound 3020] ({CH2CO}-[Thr(3ξ)]Y(Carboxymethyl)D[Phe(3-Me)]V[Bip]V[Orn][dL][Dab][Cha]V[Thr(3ξ)]CA[Dab][Aun]-OH; thioether N-14), the IC50 came to 12 nM.
